Assays:
HepG2 cells [1] = assay: Transwell migration assay; format: cell-based, human; settings: 18 hours
Description: (§1) Chemotaxis experiments with human HepG2Huh7, or PANC-1 cells were assayed by using transwells (Millipore). The cells to be analyzed (5×10^4 cells/well) were seeded in the upper chambers of the 24-well plate in 400 μL serum-free medium. FBS (10%) was used as the chemoattractant with or without different concentrations of the test compound (e.g., ACK900, ACK901, ACK902) in the lower chamber, and the plate was incubated under standard conditions. After incubation for 18 hours, the media in the upper chambers were aspirated and washed with phosphate-buffered saline (PBS) twice. Both non-migrated and migrated cells were fixed with 4% paraformaldehyde (PFA) for 30 minutes at room temperature, stained with 2% crystal violet solution. The non-invading cells were removed from the upper surface of the insert membrane with a cotton swab. The images were taken using an imaging reader (Cytation 5, BioTek, VT, U.S.A.) and analyzed using NIH ImageJ software. Percent in the results represent percent of initial number of cells in the migrating and nonmigrating Cell fractions.

Huh7 cells [2] = assay: Transwell migration assay; format: cell-based, human; settings: 18 hours
Description: as §1

PANC-1 cells [3] = assay: Transwell migration assay; format: cell-based, human; settings: PANC-1, transwell, 18 hours
Description: as §1

HepG2 cells [4] = assay: Surface binding of lectin by fluorescence microscopy; format: cell-based, human; settings: HepG2, 10 μM, 48 h
[5] = molecular target: human Golgi α-mannosidase II (α-hGMII) (Homo sapiens (Human), UniProt Q16706); assay: Golgi α-mannosidase II (α-hGMII) activity assay, 4-MU-α-D-mannopyranoside substrate; format: biochemical; settings: pH 7.0, 37° C., 2 h
Description: (§2) Compounds were diluted to give the final concentration of 100 μM and mixed with 4-MU-α-D-mannopyranoside as substrate and human Golgi α-mannosidase II in phosphate buffer (0.1 M Sodium phosphate dibasic, pH 7.0) or human lysosomal α-mannosidase in citric phosphate buffer (0.1 M Sodium phosphate monobasic monohydrate, 0.5 mM citric acid monohydrate, pH 4.6). The assay was carried out at 37° C. for a certain time (1 h for α-hLM, 2 h for α-hGMII). Stop solution (0.5 M K2CO3(aq), pH 10.8) was then added to the reactions and the fluorescence was determined at 355 nm excitation and 460 nm emission (SpectraMax M5, Molecular Devices). Inhibition was performed as relative enzyme activity to control. The active compounds were selected for libraries preparation and further tested at lower concentration to determine their IC50 values. The assays performed in 384-wells of the microtiter plates.

HepG2 cells [6] = assay: N-glycan profiling by mass spectrometric analysis; format: cell-based, human; settings: HepG2, 0.1 to 10 μM, 72 h
Description: (§3) To this purpose, HepG2 and Huh7 cells were treated with ACK900 in dose-dependent manner (0.1 to 10 μM) for 72 h and N-glycan profiling was determined using mass spectrometric analysis. (FIGS. 1B and 1C)), This method was based on matching the experimental masses with the predicted masses of the glycans from the CFG carbohydrate database. The individual glycoforms were quantified and calculated for their proportions in all the glycoforms. Most N-glycans of untreated HepG2 and Huh7 were dominated by complex-type glycans containing sialic acids and fucoses. High-mannose or hybrid-type glycans were found in a relatively low percentage. […] These glycoform data from MS analysis were consistent with the surface binding of lectin using fluorescence microscopy.

Huh7 cells [7] = assay: N-glycan profiling by mass spectrometric analysis; format: cell-based, human; settings: Huh7, 0.1 to 10 μM, 72 h
Description: as §3

MDA-MB-231 cells = assay: Anti-proliferative activity assay (CellTiter-Glo); format: cell-based, human; settings: 48 h
Description: (§4) Human liver cancer HepG2 cells and Huh7 cells, breast cancer MDA-MB-231 cells, pancreatic cancer PANC-1 cells, and non-small cell lung (NSCL) cancer H1975 cells were maintained in Dulbecco's Modified Eagle Medium supplemented containing 10% fetal bovine serum (FBS), 100 units/ml penicillin and […] streptomycin in 37° C. incubator with 5% CO2.
(§5) Anti-proliferative activity of HepG2, Huh7 or PANC-1 cells was determined by 3-(4,5-dimethylthiazol-2-yl)-2,5-diphenyltetrazolium bromide (MTT) assay, while that of H1975 or MDA-MB-231 cells was determined by luminescent assay with the aid of commercial kit CellTiter-Glo® (Promega).
(§6) For H1975 and MDA-MB-231, cells were respectively seeded at 5×10^3 cells/well in 96-well plates and maintained for 14-16 hours. Cells were treated with dimethylsulfoxide (DMSO) or test compounds in varied concentrations for 48 h. Cell viability was monitored using Cell-TiterGlo (Promega), a kit that measures the quantity of ATP present in the cell culture, an indicator of metabolically active cells. The IC50 values of death cell lines were calculated accordingly.

H1975 cells = assay: Anti-proliferative activity assay (CellTiter-Glo); format: cell-based, human; settings: 48 h
Description: as §4, §5, §6

HepG2 cells [8] = assay: Anti-proliferative activity assay (MTT); format: cell-based, human; settings: 72 h
Description: as §4, §5
(§7) Cancer cells including HepG2, Huh7 and PANC-1 cells were respectively seeded at 10^4, 4×10^3, and 5×10^3 cells/well in 96-well plates and maintained for 14-16 hours. Cells were treated with dimethylsulfoxide (DMSO) or test compounds in varied concentrations for 72 h. Cells were then washed with PBS twice, added a medium containing 3-(4,5-dimethylthiazol-2-yl)-2,5-diphenyltetrazolium bromide (MTT) at a final concentration of 0.5 mg/mL, and incubated for 4 h at 37° C. in a humidified incubator containing 5% CO2 in air. Cells having functional succinate dehydrogenase of mithchondria would convert MTT to formazan. Then, the medium was replaced with 100 μL of DMSO for 30 min at room temperature, and the 96-well plate was read by an ELISA reader at 550 nm to get the absorbance density values. The IC50 values of death cell lines were calculated accordingly.

Huh7 cells [9] = assay: Anti-proliferative activity assay (MTT); format: cell-based, human; settings: 72 h
Description: as §4, §5, §7

PANC-1 cells [10] = assay: Anti-proliferative activity assay (MTT); format: cell-based, human; settings: 72 h
Description: as §4, §5, §7

[11] = molecular target: human lysosomal α-mannosidase (α-hLM) (Homo sapiens (Human), UniProt O00754); assay: α-Mannosidase (α-hLM) activity assay, 4-MU-α-D-mannopyranoside substrate; format: biochemical; settings: pH 4.6, 37° C., 1 h
Description: as §2

Huh7 cells [12] = assay: Surface binding of lectin by fluorescence microscopy; format: cell-based, human; settings: Huh7, 10 μM, 48 h
[13] = test system: all cancer cell lines (HepG2, Huh7, PANC-1, H1975, MDA-MB-231); assay: Anti-proliferative activity, pooled statement over all cancer cell lines; format: cell-based, human; settings: read-out: half maximum inhibitory concentration (IC50), range in all cancer cell lines
Description: as §5, §7, §6

Sequence of human Golgi α-mannosidase II (α-hGMII) (Q16706 whole entry): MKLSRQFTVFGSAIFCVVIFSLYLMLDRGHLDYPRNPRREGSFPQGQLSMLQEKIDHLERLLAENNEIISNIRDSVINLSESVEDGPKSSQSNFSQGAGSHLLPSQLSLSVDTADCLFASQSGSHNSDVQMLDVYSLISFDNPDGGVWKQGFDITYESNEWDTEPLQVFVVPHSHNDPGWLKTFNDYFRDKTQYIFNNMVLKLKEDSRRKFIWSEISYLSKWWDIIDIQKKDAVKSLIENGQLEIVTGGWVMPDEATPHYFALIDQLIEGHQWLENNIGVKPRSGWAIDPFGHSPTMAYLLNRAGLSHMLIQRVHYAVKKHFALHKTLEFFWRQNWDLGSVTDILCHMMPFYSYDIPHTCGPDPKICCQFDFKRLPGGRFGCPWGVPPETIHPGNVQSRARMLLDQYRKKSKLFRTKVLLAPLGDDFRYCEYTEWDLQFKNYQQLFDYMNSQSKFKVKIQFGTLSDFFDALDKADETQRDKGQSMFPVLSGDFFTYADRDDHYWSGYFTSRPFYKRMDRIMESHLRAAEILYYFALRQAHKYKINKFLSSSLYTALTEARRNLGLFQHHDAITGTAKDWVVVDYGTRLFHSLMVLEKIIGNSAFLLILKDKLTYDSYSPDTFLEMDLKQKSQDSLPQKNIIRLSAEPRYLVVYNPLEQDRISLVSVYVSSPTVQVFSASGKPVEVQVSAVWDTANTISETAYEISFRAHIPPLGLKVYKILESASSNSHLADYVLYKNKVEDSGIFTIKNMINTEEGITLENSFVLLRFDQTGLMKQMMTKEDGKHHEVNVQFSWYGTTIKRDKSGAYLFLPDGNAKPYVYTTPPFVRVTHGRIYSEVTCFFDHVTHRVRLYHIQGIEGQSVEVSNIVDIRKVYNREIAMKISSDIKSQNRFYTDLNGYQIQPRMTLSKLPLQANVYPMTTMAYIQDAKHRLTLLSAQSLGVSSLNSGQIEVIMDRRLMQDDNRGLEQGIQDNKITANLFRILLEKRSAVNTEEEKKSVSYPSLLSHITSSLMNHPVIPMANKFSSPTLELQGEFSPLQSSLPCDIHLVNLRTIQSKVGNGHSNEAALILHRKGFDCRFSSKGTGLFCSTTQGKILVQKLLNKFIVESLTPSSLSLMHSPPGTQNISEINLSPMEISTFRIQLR
Sequence of human lysosomal α-mannosidase (α-hLM) (O00754 50-1011): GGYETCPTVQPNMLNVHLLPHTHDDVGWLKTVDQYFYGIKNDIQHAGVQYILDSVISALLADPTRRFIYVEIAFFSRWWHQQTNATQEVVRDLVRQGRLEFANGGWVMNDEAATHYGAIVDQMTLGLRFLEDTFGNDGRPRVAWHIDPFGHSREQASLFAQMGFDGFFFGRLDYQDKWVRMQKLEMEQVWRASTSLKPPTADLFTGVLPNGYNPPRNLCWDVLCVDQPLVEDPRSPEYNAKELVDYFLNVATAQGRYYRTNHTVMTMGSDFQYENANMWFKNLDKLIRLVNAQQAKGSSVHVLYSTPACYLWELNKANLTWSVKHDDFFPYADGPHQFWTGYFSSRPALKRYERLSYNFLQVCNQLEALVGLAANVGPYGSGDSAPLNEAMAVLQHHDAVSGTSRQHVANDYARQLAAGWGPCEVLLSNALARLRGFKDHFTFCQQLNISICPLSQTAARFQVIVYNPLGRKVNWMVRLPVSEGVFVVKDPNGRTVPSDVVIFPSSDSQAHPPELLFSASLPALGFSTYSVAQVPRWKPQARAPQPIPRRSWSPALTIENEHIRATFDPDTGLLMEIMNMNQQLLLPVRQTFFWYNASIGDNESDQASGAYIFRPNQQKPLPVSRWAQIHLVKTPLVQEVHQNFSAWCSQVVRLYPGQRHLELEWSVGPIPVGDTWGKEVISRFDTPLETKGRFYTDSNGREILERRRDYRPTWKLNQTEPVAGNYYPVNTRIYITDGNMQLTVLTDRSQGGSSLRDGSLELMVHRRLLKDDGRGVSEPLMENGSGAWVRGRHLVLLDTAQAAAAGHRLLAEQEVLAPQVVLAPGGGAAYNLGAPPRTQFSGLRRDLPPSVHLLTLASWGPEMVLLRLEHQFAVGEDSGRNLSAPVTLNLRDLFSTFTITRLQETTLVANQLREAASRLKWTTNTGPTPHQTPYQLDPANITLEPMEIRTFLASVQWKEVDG

IC50 [5]: 0.1 µM
IC50 (MDA-MB-231 cells): 4.6 µM
IC50 (H1975 cells): 13.9 µM
IC50 (HepG2 cells [8]): 5.9 µM
IC50 (Huh7 cells [9]): 7.8 µM
IC50 (PANC-1 cells [10]): 14.5 µM
IC50 [11]: 14 µM
IC50 [13]: 0.3 to 19.1 µM
Compound: CCC[C@H]1CC[C@H](c2ccc(NC(=S)NC[C@@H]3[C@@H](O)[C@@H](O)[C@H]4[C@H](O)CCCN43)cc2)CC1 [ACK900]
migratory capability (HepG2 cells [1]): remarkably decreased
migratory capability (Huh7 cells [2]): remarkably decreased
migratory capability (PANC-1 cells [3]): remarkably decreased
surface binding of Concanavalin A (ConA) (HepG2 cells [4]): markedly increased
surface binding of galectin-1 (Gal1) (HepG2 cells [4]): substantially decreased
N-glycan pattern (HepG2 cells [6]): significant shift of N-glycopatterns from complex chains to the hybrid-type glycan
N-glycan pattern (Huh7 cells [7]): significant shift of N-glycopatterns from complex chains to the hybrid-type glycan
surface binding of Concanavalin A (ConA) (Huh7 cells [12]): markedly increased
surface binding of galectin-1 (Gal1) (Huh7 cells [12]): substantially decreased
